Laboratory results published in PubChem BioAssay (NCI).
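Where inhibition never reached the appropriate level, the endpoint shown equals the highest concentration tested. Otherwise, values were interpolated linearly from a five-concentration, 48-hour dose response in 96-well plates. GI50: concentration for 50% inhibition of growth. TGI marks complete inhibition of growth.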

Legend:
Test in all cases: growth of human tumour cells (NCI), 48 h
[1] = tested on: 786-0 renal
[2] = tested on: A549 NSCLC
[3] = tested on: ACHN renal
[4] = tested on: BT-549 breast
[5] = tested on: CAKI-1 renal
[6] = tested on: COLO 205 colon
[7] = tested on: EKVX NSCLC
[8] = tested on: HCC-2998 colon
[9] = tested on: HCT-116 colon
[10] = tested on: HCT-15 colon
[11] = tested on: HL-60(TB) leukemia
[12] = tested on: HOP-62 NSCLC
[13] = tested on: HOP-92 NSCLC
[14] = tested on: HS 578T breast
[15] = tested on: HT29 colon
[16] = tested on: IGROV1 ovarian
[17] = tested on: K-562 leukemia
[18] = tested on: KM12 colon
[19] = tested on: LOX IMVI melanoma
[20] = tested on: M14 melanoma
[21] = tested on: MCF7 breast
[22] = tested on: MDA-MB-231 breast
[23] = tested on: MDA-MB-435
[24] = tested on: MOLT-4 leukemia
[25] = tested on: NCI-H226 lung
[26] = tested on: NCI-H23 lung
[27] = tested on: NCI-H460 lung
[28] = tested on: NCI-H522 lung
[29] = tested on: NCI/ADR-RES ovarian
[30] = tested on: OVCAR-3 ovarian
[31] = tested on: OVCAR-5 ovarian
[32] = tested on: OVCAR-8 ovarian
[33] = tested on: PC-3 prostate
[34] = tested on: RXF 393 renal
[35] = tested on: SF-268 CNS
[36] = tested on: SF-295 CNS
[37] = tested on: SK-MEL-2 melanoma
[38] = tested on: SK-MEL-28 melanoma
[39] = tested on: SK-MEL-5 melanoma
[40] = tested on: SN12C renal
[41] = tested on: SNB-19 CNS
[42] = tested on: SW-620 colon
[43] = tested on: T-47D breast
[44] = tested on: TK-10 renal
[45] = tested on: U251 CNS
[46] = tested on: UACC-257 melanoma
[47] = tested on: UACC-62 melanoma
[48] = tested on: UO-31 renal

CCCCOC(=O)C1OC(O[C@H]2CCC3(C)C(CCC4(C)C3CC=C3C5CC(C)(C)CCC5(C(=O)O)CC[C@]34C)C2(C)C)C(OC2OC(CO)C(O)C(O)C2O)C(OC2OC(CO)C(O)C(O)C2O)C1O (stereo partly specified)
GI50 [1]: 26.2 µM | TGI [1]: 70.9 µM | GI50 [2]: 34.1 µM | TGI [2]: > 100 µM | GI50 [3]: 20.6 µM | TGI [3]: 48.5 µM | GI50 [4]: 21.5 µM | TGI [4]: 41.6 µM | GI50 [5]: 33.4 µM | TGI [5]: 95.4 µM | GI50 [6]: 20.1 µM | TGI [6]: 52.3 µM | GI50 [7]: 24.4 µM | TGI [7]: 49.7 µM | GI50 [8]: 21.8 µM | TGI [8]: 38.1 µM | GI50 [9]: 20.6 µM | TGI [9]: 42.7 µM | GI50 [10]: 20.9 µM | TGI [10]: 51 µM | GI50 [11]: 22.3 µM | TGI [11]: 52 µM | GI50 [12]: 19.4 µM | TGI [12]: 35.6 µM | GI50 [13]: 33.2 µM | TGI [13]: > 100 µM | GI50 [14]: 38 µM | TGI [14]: > 100 µM | GI50 [15]: 34.2 µM | TGI [15]: > 100 µM | GI50 [16]: > 100 µM | TGI [16]: > 100 µM | GI50 [17]: 23.2 µM | TGI [17]: > 100 µM | GI50 [18]: 30.8 µM | TGI [18]: 93.5 µM | GI50 [19]: 18 µM | TGI [19]: 31.8 µM | GI50 [20]: 17.8 µM | TGI [20]: 32.7 µM | GI50 [21]: 38.4 µM | TGI [21]: > 100 µM | GI50 [22]: 14.5 µM | TGI [22]: 32.2 µM | GI50 [23]: 30.6 µM | TGI [23]: 81 µM | GI50 [24]: 7.77 µM | TGI [24]: 36.4 µM | GI50 [25]: 29.2 µM | TGI [25]: 66.1 µM | GI50 [26]: 22.8 µM | TGI [26]: 47.6 µM | GI50 [27]: 33.3 µM | TGI [27]: > 100 µM | GI50 [28]: 43.9 µM | TGI [28]: > 100 µM | GI50 [29]: 74 µM | TGI [29]: > 100 µM | GI50 [30]: > 100 µM | TGI [30]: > 100 µM | GI50 [31]: 28.8 µM | TGI [31]: 56.4 µM | GI50 [32]: 66.8 µM | TGI [32]: > 100 µM | GI50 [33]: 34.7 µM | TGI [33]: > 100 µM | GI50 [34]: 58.5 µM | TGI [34]: > 100 µM | GI50 [35]: 27.7 µM | TGI [35]: 84.4 µM | GI50 [36]: 26 µM | TGI [36]: 71 µM | GI50 [37]: 40.9 µM | TGI [37]: > 100 µM | GI50 [38]: 26.7 µM | TGI [38]: 52.2 µM | GI50 [39]: 33.1 µM | TGI [39]: > 100 µM | GI50 [40]: 21.8 µM | TGI [40]: 40 µM | GI50 [41]: 22.5 µM | TGI [41]: 53.6 µM | GI50 [42]: 36.6 µM | TGI [42]: > 100 µM | GI50 [43]: 48 µM | TGI [43]: > 100 µM | GI50 [44]: 33.3 µM | TGI [44]: > 100 µM | GI50 [45]: 17.9 µM | TGI [45]: 31.8 µM | GI50 [46]: 26.2 µM | TGI [46]: 62.2 µM | GI50 [47]: 20.9 µM | TGI [47]: 36.1 µM | GI50 [48]: 49.2 µM | TGI [48]: > 100 µM
